Assay results taken from PMC8343220, “The selectivity of α‐adrenoceptor agonists for the human α1A, α1B, and α1D‐adrenoceptors” (Pharmacology Research & Perspectives, 2021).
“Also recorded” adds a separate entry of the source. Read-outs that look alike come from different tables or passages of the source. Marks after values point to notes of the source that are not given here.

Tests used:
[1] = tested on: parental CHO cell line without any transfected receptors; test: Forskolin‐stimulated cAMP accumulation, parent CHO cells without transfected receptors; assay type: cell-based, Chinese hamster
[2] = tested on: parental CHO cell line without any transfected receptors; test: ^3H‐cAMP accumulation, parent CHO cells without transfected receptors; assay type: cell-based, Chinese hamster
[3] = tested on: parental CHO cell line without any transfected receptors; test: Intracellular calcium mobilization, parent CHO cells without transfected receptors; assay type: cell-based, Chinese hamster; conditions: for Emax: Cricetulus griseus, CHO cells without transfected receptors, response at maximum concentration used (c2), as % of ionomycin (10μM) response, mean ± s.e.m., read-out: Intracellular calcium release % ionomycin
[4] = tested on: parental CHO cell line without any transfected receptors; test: ERK1/2‐phosphorylation, parent CHO cells without transfected receptors; assay type: cell-based, Chinese hamster; conditions: for Emax: read-out: ERK1/2-phosphorylation % PDBu
[5] = target: T1, human α1D‐adrenoceptor (full length) (Homo sapiens, UniProt P25100); test: ^3H‐prazosin whole‐cell radioligand binding, CHO‐α1D cells
T1 construct: human α1D‐adrenoceptor (full length) were used; expressed in transfected cells; host or cells: CHO-K1
T1 sequence (P25100 1-572): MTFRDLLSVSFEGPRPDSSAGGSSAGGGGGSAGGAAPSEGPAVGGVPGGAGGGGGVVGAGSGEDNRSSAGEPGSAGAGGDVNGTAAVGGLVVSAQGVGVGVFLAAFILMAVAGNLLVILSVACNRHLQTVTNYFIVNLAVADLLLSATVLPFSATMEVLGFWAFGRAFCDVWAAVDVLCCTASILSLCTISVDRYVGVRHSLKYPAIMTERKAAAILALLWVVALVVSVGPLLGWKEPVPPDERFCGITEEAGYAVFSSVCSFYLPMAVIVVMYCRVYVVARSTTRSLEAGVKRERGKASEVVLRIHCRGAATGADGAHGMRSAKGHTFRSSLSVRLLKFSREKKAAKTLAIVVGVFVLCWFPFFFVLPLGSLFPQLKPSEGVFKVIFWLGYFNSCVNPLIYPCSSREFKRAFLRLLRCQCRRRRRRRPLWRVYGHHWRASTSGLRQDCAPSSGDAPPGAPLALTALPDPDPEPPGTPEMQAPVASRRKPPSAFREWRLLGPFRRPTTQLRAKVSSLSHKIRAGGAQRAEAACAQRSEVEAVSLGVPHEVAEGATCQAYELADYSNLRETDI

[6] = target: T2, human α1B‐adrenoceptor (Homo sapiens, UniProt P35368); test: Intracellular free calcium mobilization, CHO‐α1B cells; assay type: cell-based
T2 construct: expressed in transfected cells; host or cells: CHO-K1
T2 sequence (P35368 1-520): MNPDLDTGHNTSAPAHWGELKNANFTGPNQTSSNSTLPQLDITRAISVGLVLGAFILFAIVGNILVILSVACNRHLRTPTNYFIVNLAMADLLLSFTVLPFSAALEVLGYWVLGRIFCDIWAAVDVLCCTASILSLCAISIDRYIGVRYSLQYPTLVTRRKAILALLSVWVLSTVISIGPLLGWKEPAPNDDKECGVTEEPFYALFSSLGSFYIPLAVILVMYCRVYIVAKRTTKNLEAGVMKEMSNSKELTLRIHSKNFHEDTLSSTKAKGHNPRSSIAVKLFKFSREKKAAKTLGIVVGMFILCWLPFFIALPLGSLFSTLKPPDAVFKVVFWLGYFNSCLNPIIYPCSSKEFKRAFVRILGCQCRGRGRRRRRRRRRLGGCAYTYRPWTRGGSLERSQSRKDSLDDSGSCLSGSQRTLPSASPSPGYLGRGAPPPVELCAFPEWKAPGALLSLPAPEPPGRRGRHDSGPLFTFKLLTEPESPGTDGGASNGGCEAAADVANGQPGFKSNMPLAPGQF

[7] = target: T1, human α1D‐adrenoceptor (full length); test: Intracellular free calcium mobilization, CHO‐α1D cells; assay type: cell-based
[8] = target: T2, human α1B‐adrenoceptor; test: ERK1/2‐phosphorylation (Surefire Alphascreen), CHO‐α1B cells; assay type: cell-based
[9] = target: T3, human α1A‐adrenoceptor (Homo sapiens, UniProt P35348); test: ^3H‐cAMP accumulation in the presence of 10 μM forskolin, CHO‐α1A cells; assay type: cell-based; conditions: for cAMP accumulation (in presence of forskolin) Fold increase: fold increase of the forskolin response
T3 construct: expressed in transfected cells; host or cells: CHO-K1
T3 sequence (P35348 1-466): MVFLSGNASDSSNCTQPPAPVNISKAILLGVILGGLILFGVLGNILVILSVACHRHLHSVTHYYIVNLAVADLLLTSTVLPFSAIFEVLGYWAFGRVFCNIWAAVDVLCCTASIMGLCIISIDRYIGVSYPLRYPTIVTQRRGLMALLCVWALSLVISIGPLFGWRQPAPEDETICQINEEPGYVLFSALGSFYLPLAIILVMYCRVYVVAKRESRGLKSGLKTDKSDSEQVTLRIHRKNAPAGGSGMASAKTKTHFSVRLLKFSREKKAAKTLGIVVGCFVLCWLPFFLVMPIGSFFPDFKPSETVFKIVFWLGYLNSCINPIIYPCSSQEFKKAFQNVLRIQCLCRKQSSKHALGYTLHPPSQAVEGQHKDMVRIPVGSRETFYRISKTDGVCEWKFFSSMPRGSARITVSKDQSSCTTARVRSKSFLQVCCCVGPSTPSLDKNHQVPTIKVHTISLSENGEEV

[10] = target: T2, human α1B‐adrenoceptor; test: ^3H‐cAMP accumulation, CHO‐α1B cells; assay type: cell-based; conditions: CHO‐α1B cells; for cAMP accumulation % forskolin: % forskolin maximum response
[11] = target: T1, human α1D‐adrenoceptor (full length); test: ^3H‐cAMP accumulation, CHO‐α1D cells; assay type: cell-based; conditions: cAMP accumulation without forskolin
[12] = target: T2, human α1B‐adrenoceptor; test: ^3H‐cAMP accumulation in the presence of 10 μM forskolin, CHO‐α1B cells; assay type: cell-based
[13] = target: T1, human α1D‐adrenoceptor (full length); test: ^3H‐cAMP accumulation in the presence of 10 μM forskolin, CHO‐α1D cells; assay type: cell-based
[14] = target: T2, human α1B‐adrenoceptor; test: ^3H‐prazosin whole‐cell radioligand binding, CHO‐α1B cells
[15] = target: T3, human α1A‐adrenoceptor; test: ^3H‐cAMP accumulation, CHO‐α1A cells; assay type: cell-based; conditions: for cAMP accumulation % forskolin: % of 10 µM forskolin response
[16] = target: T3, human α1A‐adrenoceptor; test: ERK1/2‐phosphorylation (Surefire Alphascreen), CHO‐α1A cells; assay type: cell-based
[17] = target: T3, human α1A‐adrenoceptor; test: ^3H‐prazosin whole‐cell radioligand binding, CHO‐α1A cells
[18] = target: T3, human α1A‐adrenoceptor; test: Intracellular free calcium mobilization, CHO‐α1A cells; assay type: cell-based
[19] = target: T1, human α1D‐adrenoceptor (full length); test: ERK1/2‐phosphorylation (Surefire Alphascreen), CHO‐α1D cells; assay type: cell-based
[20] = read-out: Intracellular calcium release Log EC50 (converted)
[21] = read-out: ERK1/2‐phosphorylation Log EC50 (converted)

Structure (SMILES): CCN(CC)C(=O)N[C@H]1C=C2c3cccc4[nH]cc(c34)C[C@H]2N(C)C1 [Lisuride]
- cAMP accumulation (in presence of forskolin) % forskolin-stim cAMP at 10μM [1]: 85.2 ± 5.0%
- cAMP accumulation % forskolin [2]: No response
- Intracellular calcium release % ionomycin [3]: No response
- ERK1/2‐phosphorylation response in parent CHO cells [4]: stimulated ERK1/2‐phosphorylation responses
- Emax ([4]; Cricetulus griseus, CHO): 41 ± 6.4%

Structure (SMILES): Cc1cc(C(C)(C)C)cc(C)c1CC1=NCCN1 [Xylometazoline]
- Affinity selectivity ratio α1B vs α1D [5]: 1.2 fold
- Kd [5]: 5890 nM
- Kd ([5]; 3H‐prazosin binding Log KD): 5890 nM
- Intracellular calcium release % Ionomycin at 100 µM [6]: 13.6 ± 3.3%
- Intracellular calcium release % Ionomycin at 100 µM [7]: 18.6 ± 2.0%
- ERK1/2‐phosphorylation % PDBu [8]: 66.2 ± 6.0%
- % inhibition of forskolin-stimulated cAMP ([1]; CHO cells without transfected receptors, footnote *: % inhibition): 21.0 ± 2.4%*
- IC50 ([1]; Cricetulus griseus, CHO cells without transfected receptors, footnote *: log IC50, read-out: log IC50, decrease in forskolin-stimulated cAMP accumulation (converted)): 66.1 nM
- Effect on cAMP accumulation in the presence of forskolin, parent cells ([1]; untransfected cells): decrease in cAMP accumulation
- EC50 [9]: 30.2 nM
- cAMP accumulation (in presence of forskolin) Fold increase ([9]; CHO‐α1A cells): 2.00 ± 0.09 fold
- cAMP accumulation Log EC50 [10]: No response
- cAMP accumulation % forskolin [10]: No response
- cAMP Log EC50 [11]: No response
- Emax [3]: 15.8 ± 2.7%
- IC50 [12]: 9.12 nM
- % inhibition of forskolin‐stimulated cAMP ([12]; CHO‐α1B cells, footnote c): 13.5 ± 1.8%a
- Effect on cAMP accumulation in the presence of forskolin, CHO‐α1B cells ([12]; not α1‐mediated): decrease in cAMP accumulation
- Emax ([4]; Cricetulus griseus, CHO cells without transfected receptors, maximal response as % of PDBu (10μM) response, mean ± s.e.m.): 56.2 ± 5.9%
- EC50 ([4]; Cricetulus griseus, CHO cells without transfected receptors, mean ± s.e.m., read-out: ERK1/2-phosphorylation Log EC50 (converted)): 89.1 nM
- ERK1/2‐phosphorylation response in parent CHO cells ([4]; untransfected cells): stimulated ERK1/2‐phosphorylation responses
- IC50 [13]: 29.5 nM
- % inhibition of forskolin‐stimulated cAMP ([13]; CHO‐α1D cells, decrease in forskolin‐stimulated cAMP accumulation (footnote b)): *26.5 ± 1.1%
- Effect on cAMP accumulation in the presence of forskolin, CHO‐α1D cells ([13]; not α1‐mediated): decrease in cAMP accumulation; also recorded: inhibitory cAMP response
- Kd [14]: 6920 nM
- Kd ([14]; Log KD, ^3H‐prazosin binding): 6920 nM
- EC50 [15]: 126 nM
- cAMP accumulation % forskolin ([15]; CHO‐α1A cells): 32.4 ± 5.7%
- EC50 [16]: 3.8 nM
- ERK1/2‐phosphorylation % PDBu [16]: 98.8 ± 5.1%
- ERK1/2‐phosphorylation potency in CHO‐α1A cells relative to untransfected parent CHO cells [16]: > 10 fold
- Affinity selectivity ratio α1A vs α1B [17]: 60.3 fold
- Affinity selectivity ratio α1A vs α1D [17]: 51.3 fold
- Kd [17]: 115 nM
- EC50 [18]: 2.51 nM
- Intracellular calcium release % ionomycin [18]: 64.4 ± 2.7%
- Log efficacy ratio KD /EC50 [18]: 1.66
- ERK1/2‐phosphorylation % PDBu [19]: 70.8 ± 7.8%

Structure (SMILES): Cc1cccc([C@H](C)c2cnc[nH]2)c1C [Dexmedetomidine]
- Affinity selectivity ratio α1A vs α1D [5]: 1.3 fold
- Affinity selectivity ratio α1B vs α1D [5]: 9.3 fold
- Kd ([5]; 3H‐prazosin binding Log KD): 1230 nM
- Kd ([5]; Log KD α1D, ^3H‐prazosin whole cell binding): 1230 nM
- Intracellular calcium release % ionomycin [6]: 43.6 ± 2.1%
- Log efficacy ratio KD /EC50 [6]: 2.29
- EC50 [6, 20]: 46.8 nM
- Intracellular calcium release % Ionomycin at 100 µM [7]: 13.1 ± 1.7%
- ERK1/2‐phosphorylation % PDBu [8]: 55.4 ± 7.4%
- EC50 [8, 21]: 132 nM
- cAMP accumulation (in presence of forskolin) % forskolin-stim cAMP at 100μM ([1]; CHO cells without transfected receptors, response at 100μM only, EC50 not obtainable, % of forskolin-stimulated cAMP): 84.4 ± 4.7%
- EC50 ([9]; CHO‐α1A cells, 10 μM forskolin, read-out: cAMP accumulation (in presence of forskolin) Log EC50 (converted)): 85.1 nM
- cAMP accumulation (in presence of forskolin) Fold increase ([9]; CHO‐α1A cells): 2.13 ± 0.09 fold
- cAMP accumulation % forskolin [10]: 3.7 ± 0.6%
- EC50 ([10]; read-out: cAMP accumulation Log EC50 (converted)): 89.1 nM
- cAMP Log EC50 [11]: No response
- Emax [3]: 6.3 ± 4.8%
- cAMP accumulation (in presence of forskolin) Fold increase ([12]; CHO‐α1B cells, fold increase of the forskolin response): 1.60 ± 0.07 fold
- EC50 ([12]; CHO‐α1B cells, in presence of forskolin, read-out: cAMP accumulation (in presence of forskolin) Log EC50 (converted)): 33.1 nM
- Emax at 100 µM ([4]; Cricetulus griseus, CHO, read-out: ERK1/2-phosphorylation % PDBu at 100μM): 5.8 ± 2.2%
- cAMP (in presence of forskolin) Fold increase ([13]; CHO‐α1D cells, fold increase of the forskolin response): No response
- cAMP (in presence of forskolin) Log EC50 ([13]; CHO‐α1D cells, in presence of forskolin, log values given negative): No response
- Kd ([14]; Log KD α1B, ^3H‐prazosin whole cell binding): 9120 nM
- Kd ([14]; Log KD, ^3H‐prazosin binding): 9120 nM
- EC50 ([15]; CHO‐α1A cells, 5 h, read-out: cAMP accumulation Log EC50 (converted)): 513 nM
- cAMP accumulation % forskolin ([15]; CHO‐α1A cells): 57.6 ± 5.7%
- ERK1/2‐phosphorylation % PDBu [16]: 81.7 ± 4.4%
- EC50 [16, 21]: 13.8 nM
- Affinity selectivity ratio α1A vs α1B [17]: 6.9 fold
- Kd ([17]; Log KD α1A, ^3H‐prazosin whole cell binding): 1320 nM
- Intracellular calcium release % ionomycin [18]: 57.3 ± 2.8%
- Log efficacy ratio KD /EC50 [18]: 1.91
- EC50 [18, 20]: 16.2 nM
- ERK1/2‐phosphorylation % PDBu at 100 µM [19]: 19.7 ± 3.3%
